These results are taken from PubChem BioAssay AID179 (DTP/NCI, 2004).

The term pEC50 denotes −log10 of the EC50, conventionally taken in molar units. The term pIC50 denotes −log10 of the IC50, conventionally taken in molar units. A higher pIC50 goes with a small IC50.

Molecules are shown by their SMILES. pEC50, pIC50: −log10 of the molar value. Calls of active or inactive are those of the source.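 Rule for the calls: active = compounds giving half or more protection of infected cells from virus-caused growth loss, again on retest; inactive = the rest.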 Where a SMILES comes first, the peptide text is derived from it. The star is where a group is joined. Cbz = O=C(OCc1ccccc1)*

The test concerns CEM cells HIV-1 protection, formazan growth assay. Description: NCI AIDS Antiviral Assay. The following applies: for pIC50: measured here: growth of uninfected CEM cells. A digest of the protocol:
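Screen of anti-HIV-1 activity in human CEM cells using a formazan-based growth measurement at five drug concentrations. Hits with 50% or greater protection were repeated, and confirmation required reproducible complete protection.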

Consider `CC1=C(/C=C/C(C)=C/C=C(C(=O)O)\C(C)=C\C(=O)O)C(C)(C)CCC1`, for which the pEC50 is < 3.70 and the pIC50 was < 3.70. For the compound `Cc1cc(C)n2c(-c3ccccc3)c(C)cc2n1`, the pEC50 was < 3.96 and the pIC50 is 4.76.

`COC(=O)c1cccc(C)c1C1CN=NC12Cc1c(ccc(C)c1C)C2=O` (stereo not given): the pEC50 was < 3.70 and the pIC50 was < 3.70. On to `O=c1ccc2ccc(S)cc2o1`, for which the pEC50 was < 3.70 and the pIC50 is 4.49. `CCOC(C)=Nc1cc(OC)cc2c1NC(=O)CCS2`: the pEC50 was < 3.70 and the negative logarithm of the IC50 (pIC50) was < 3.70. As for `COC1/C=C\OC2(C)Oc3c(C)c(O)c4c(O)c(c(/C=N/N(Cc5ccccc5)C56CC7CC(CC(C7)C5)C6)c(O)c4c3C2=O)NC(=O)/C(C)=C\C=C\C(C)C(O)C(C)C(O)C(C)C(OC(C)=O)C1C` (stereo not given), the pEC50 was < 3.70 and the negative-log IC50 (pIC50) is 5.16. The corresponding values for `COc1cc(NCc2ccc3nc(N)nc(N)c3c2C)cc(OC)c1OC` (tested in a mixture with another compound) are < 5.35 and 8.44. The matching figures for `N#CC(=Nc1ccccc1N(C(=O)c1ccccc1)C(=O)c1ccccc1)c1ccccc1`: < 4.77 and < 4.77. The corresponding values for `CC(C)(C)OC(=O)N(CCCCNC(=O)OCc1ccccc1)CCCNC(=O)OCc1ccccc1` are < 3.70 and 5.35. As for `Cc1ccc(S(=O)(=O)N2CCSCCSCCN(S(=O)(=O)c3ccc(C)cc3)CCN(S(=O)(=O)c3ccc(C)cc3)CC2)cc1`, the pEC50 is < 4.85 and the pIC50 was < 4.85. Turning to `O=C1OC(=O)c2ccc3c4c(ccc1c24)C(=O)OC3=O`, the pEC50 is < 3.03 and the pIC50 is < 3.03. Regarding `O=[N+]([O-])c1ccc([As](=O)(O)O)cc1`, the pEC50 is < 3.70 and the pIC50 was < 3.70. In the case of `CC(=O)N(CN1C(=O)CCC1C(=O)O)c1cccc(O)c1` (stereo not given), the outcome was inactive. On to `COc1ccc(C(OCC2OC(n3ccc(NC(=O)c4ccccc4)nc3=O)C(O)C2O)(c2ccccc2)c2ccccc2)cc1` (stereo not given), for which the pEC50 is < 3.70 and the pIC50 was 5.03. Regarding `CCCCCCCCCCOC1C(C(O)CNCCCN(C)C)OC2OC3(CCCCC3)OC21` (stereo not given), the pEC50 is < 3.70 and the negative logarithm of the IC50 (pIC50) was 5.99. The matching figures for `CSCCCNC(=O)c1csc(-c2csc(CCNC(=O)CNC(=O)CNC(=O)OC(C)(C)C)n2)n1`: < 3.35 and 3.67. As for `COc1cccc(C2c3cc4c(cc3OC(N3CCCC3)C2C)OCO4)c1` (stereo not given), the pEC50 is < 3.70 and the pIC50 was 5.42. The matching figures for `O=C(O)CN1CCN2CCOCCOCCN(CC1)CCN(CC(=O)O)CC2`: < 3.70 and 4.46.

For `Cc1ccc2c(c1)C(c1cccc3ccccc13)OC2=O` (stereo not given), the outcome was inactive.

As for `Cc1cccc(Cl)c1NC(N)=S`, the pEC50 was < 4.44 and the pIC50 was < 4.44. For the compound `O=C(/C=C/c1c(O)ccc2ccccc12)c1cccc(O)c1`, the pEC50 is < 3.21 and the pIC50 is 4.04. The matching figures for `Nc1nc(N)c(-c2ccccc2)c(CCC(=O)Nc2ccc(Cl)cc2)n1`: < 3.31 and 4.62. The corresponding values for `COC(=O)C(=O)C1CCCC(c2nc3n(c2O)C(=N)N=N3)C1=O` (stereo not given) are < 3.11 and < 3.11. The matching figures for `COc1ccc(C(=O)c2ccc(OC)c(S(=O)(=O)N(C)C)c2)cc1S(=O)(=O)N(C)C`: < 4.10 and < 4.10. Regarding `O=C(CCN(CCO)CCO)Nc1ccc2c(c1)C(=O)c1ccc(NC(=O)CCN(CCO)CCO)cc1C2=O`, the pEC50 was < 3.70 and the pIC50 is 5.78.

Consider `COC(=O)C12CCC(CC1=O)C2(C)C` (stereo not given), for which the pEC50 is < 3.60 and the negative-log IC50 (pIC50) was < 3.60.

As for `N#CSC1=C(SC#N)C(=O)c2ccccc2C1=O`, the pEC50 was < 3.70 and the pIC50 is 4.91. The corresponding values for `CCN=C(Nc1cccc(C2=NCCN2)c1)c1ccc(C(=NCC)Nc2cccc(C3=NCCN3)c2)cc1` are 3.84 and < 3.70. With `Cc1cc(N(CCC#N)S(=O)(=O)c2ccccc2)ccc1/C=C1\N=C(c2ccc(Cl)cc2)OC1=O`, the pEC50 was < 3.59 and the negative-log IC50 (pIC50) is < 3.59.

Take `CCOC(=O)C(=O)CC(=O)C1=C(c2ccccc2OC)CC(c2cccs2)=CC1=O`: the pEC50 was < 3.70 and the pIC50 is 4.49.

As to `Cc1cc(N(CCC#N)CCC#N)ccc1/C(N=Nc1ccc([N+](=O)[O-])cc1)=N\NC(=O)c1cc(Cl)ccc1O`, the pEC50 is < 3.70 and the pIC50 was 4.64. As to `CCC(C)C(NC(=O)CNC(=O)C(Cc1cnc[nH]1)NC(=O)C(NC(=O)C(CS)NC(=O)C(CCC(N)=O)NC(=O)C(NC(=O)C(NC(=O)C(CO)NC(=O)C(NC(=O)C(CC(N)=O)NC(=O)C(NC(=O)C(CO)NC(=O)C1CCCN1C(=O)CNC(=O)C(NC(=O)CN)C(C)O)C(C)O)C(C)C)C(C)O)C(C)C)C(C)O)C(=O)NC(CCCN=C(N)N)C(N)=O` (stereo not given) (H-GTGPSTNVSTVQCTHGIR-NH2; configuration not given here), the pEC50 was < 4.30 and the pIC50 was < 4.30.

For the compound `C=CCNc1nc2c(s1)CCc1cc(OC)c(OC)cc1-2`, the pEC50 was < 4.62 and the pIC50 was < 4.62. For `CC1(C)CC[C@]2(C(=O)O)CCC3(C)C(=CCC4[C@@]5(C)CC[C@H](OC6OCC(O)C(O)C6OC6OC(CO)C(O)C(O)C6O)C(C)(C)C5CC[C@]43C)C2C1` (stereo not given in full), the result was inactive. For `O/N=C1\CCc2nonc2\C1=N/Nc1ccccc1`, the pEC50 is < 3.70 and the pIC50 is < 3.70.

As for `C/C(COc1ccccc1)=N\NC(N)=S`, the outcome was inactive. For `CCC1CCc2c(OC)ccc(OCC(=O)O)c2C1=O` (stereo not given), the result was inactive. For the compound `Cc1[nH]c2ccccc2c1C1=CC(=O)N(c2ccccc2)C1=O`, the pEC50 was < 3.70 and the pIC50 is 5.06.

Turning to `COc1cc2ccc(CC(N)=O)cc2cc1OC`, the result was inactive. As for `COC[C@@H]1[C@H]2OC(C)(C)O[C@H]2C(=O)N1C(=O)c1ccc(OC)cc1`, the pEC50 is < 3.70 and the pIC50 was < 3.70. In the case of `CC(C)(CCCCC(C)(C)C1NC(=O)N1)C1NC(=O)N1`, the pEC50 was < 3.70 and the pIC50 is < 3.70. As for `CN(c1ccc(Cl)cc1)S(=O)(=O)c1cccc([N+](=O)[O-])c1`, the pEC50 was < 3.70. For `O=C(Nc1ccccc1)c1ccccc1[Se][Se]c1ccccc1C(=O)Nc1ccccc1`, the pEC50 was 5.27 and the pIC50 is 5.02. For the compound `COC(=O)CNC(=O)C(CC(C)C)NC(=O)C(CC(C)C)NC(=O)C(C)NC(=O)OCc1ccccc1` (stereo not given) (Cbz-ALLG-OMe; configuration not given here), the result was inactive.

For `CC(C)(C)NC(=O)Nc1ccccn1`, the pEC50 is < 3.70 and the pIC50 is < 3.70. With `O=c1c2ccccc2oc2ccccc12` (tested in a mixture with another compound), the pEC50 was < 4.96 and the pIC50 is 6.11. Turning to `O=[N+]([O-])c1ccccc1OS(=O)(=O)c1ccccc1`, the result was inactive.

`COc1c(Cl)cc(Cl)c(CCCCCCCC(=O)O)c1Cl`: the pEC50 is < 4.00 and the pIC50 is < 4.00.

On to `O=c1[nH]c2ccccc2c(=O)c2cc3ccccc3cc12`, for which the pEC50 was < 3.70 and the pIC50 is < 3.70. Take `CCCCCC[C@@H]1CCC2C(CO)[C@@H](O)CC[C@@H]2C1` (stereo not given in full): the pEC50 is < 4.43 and the negative logarithm of the IC50 (pIC50) was 4.55. The matching figures for `C=C(C)CCC(=O)[C@](C)(O)[C@H]1[C@H](O)C[C@@]2(C)[C@@H]3CCc4c(cc(OC5OC(CO)C(O)C(O)C5O)c(O)c4C)C3(C)C(=O)C[C@]12C` (stereo not given in full): < 3.70 and < 3.70. The corresponding values for `Nc1[nH]n(-c2ccccc2)c(=O)c1/C=N/C(=S)NC1CCCCC1` are < 4.00 and < 4.00. The corresponding values for `OCC1OC(n2cnc3c(Cl)nc(Nc4ccccc4)nc32)CC1O` (stereo not given) are < 3.70 and 4.55. Consider `CC(C)(C)c1nc2c(o1)C(=Nc1ccccc1)c1ccccc1C2=O`, for which the result was inactive. For `COc1ccc(NC(=O)CC/C(CC(=O)c2ccco2)=N/NC(N)=S)cc1`, the result was inactive. Take `Cn1c(=O)n(C2(C)C[Se]C2)c2ccccc21`: the pEC50 was < 3.33 and the pIC50 was 3.78. The matching figures for `COC1(OC)C(N(C)C)=C(Cl)C(=O)/C1=C/C=O`: < 3.60 and 4.14.

Consider `COc1ccc(NC(=O)CC(=O)N2N=C(C)C(N=Nc3ccc(S(=O)(=O)c4ccc(N=NC5C(=O)N(C(=O)CC(=O)Nc6ccc(OC)cc6)N=C5C)cc4)cc3)C2=O)cc1` (stereo not given), for which the pEC50 is < 4.00 and the pIC50 is 4.02. The corresponding values for `O=P1(C(c2ccccc2)c2ccccc2)OC2CC(Cl)CC(C2)O1` (stereo not given) are < 5.14 and < 5.14.

`COc1ccc2c(c1)OC1(OCCO1)[C@@H]1C2CC[C@@]2(C)C1CCC21OCCO1` (stereo not given in full): the pEC50 was < 4.73 and the pIC50 is < 4.73. For `O=C1C(=Cc2cccc(O)c2)N=C(c2ccccc2)N1n1c(-c2ccccc2)nc2ccccc2c1=O`, the pEC50 was < 3.70 and the pIC50 is 5.07. For the compound `CC(=O)NNC(=S)/N=C/C(C(=O)Nc1ccc(Cl)cc1)=C(\C)O`, the outcome was inactive. With `Cc1cc(C(=O)O)c(C)cc1SSc1cc(C)c(C(=O)O)cc1C`, the pEC50 was < 3.98 and the pIC50 is 4.12.

As for `C[Si](C)(CCC(=O)O)O[Si](C)(C)CCC(=O)O`, the pEC50 is < 3.19 and the pIC50 is < 3.19.

On to `O=S(=O)(O)c1ccc(O)c(N=Nc2ccc(/C=C/c3ccc(N=Nc4cc(S(=O)(=O)O)ccc4O)cc3S(=O)(=O)O)c(S(=O)(=O)O)c2)c1`, for which the pEC50 was < 3.70 and the pIC50 is 3.90.

For `CCC(=O)OC1CCC2C3CCC(=O)OC3C(C)(CCC(=O)O)CC12C` (stereo not given), the pEC50 was < 3.70 and the negative logarithm of the IC50 (pIC50) is 5.72.
